# Assay results as given in US7488730B2, “N-(1,2,3,4-tetrahydronaphthalen-1-yl)-4-phenyl-1-piperazinealkylamide derivatives, and therapeutic use thereof as 5-HT7 receptor ligands” (Universita Degli Studi Di Bari, priority 2005, dated 2009).
# Entries after “also recorded” stand apart in the source; their conditions may differ. Counter-ions that a name gives are not always drawn.
# Experiments:
# [1] = target: T1, 5-HT1A receptors (Rattus norvegicus, UniProt P19327); details: for Ki: read-out: Ki, nM 5-HT1A, [3H]-8-OH-DPAT, rat hippocampal membranes
# T1 sequence (P19327 1-422): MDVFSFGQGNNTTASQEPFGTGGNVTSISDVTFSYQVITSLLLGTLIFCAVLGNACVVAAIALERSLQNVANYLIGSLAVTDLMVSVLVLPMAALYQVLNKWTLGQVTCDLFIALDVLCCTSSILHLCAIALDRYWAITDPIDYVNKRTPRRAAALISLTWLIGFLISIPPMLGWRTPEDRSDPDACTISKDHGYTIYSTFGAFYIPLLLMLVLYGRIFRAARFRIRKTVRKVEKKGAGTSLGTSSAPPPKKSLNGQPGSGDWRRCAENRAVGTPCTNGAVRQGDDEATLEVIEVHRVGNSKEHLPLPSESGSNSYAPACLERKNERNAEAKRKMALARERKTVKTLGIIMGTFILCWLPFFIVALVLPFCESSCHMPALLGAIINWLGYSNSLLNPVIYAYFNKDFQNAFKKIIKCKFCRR
# Method: Radioligand Binding Assay at Rat Hippocampal Membranes 5-HT1A Receptors. Binding experiments were performed according to a known method. Rats were killed by decapitation, the brain was quickly removed, and the hippocampus was dissected. […] The homogenate was centrifuged at 48000 g for 15 min at 4° C. The supernatant was discarded, and the pellet was resuspended in 25 mL of buffer, then preincubated for 10 min at 37° C. The homogenate was centrifuged at 48000 g for 15 min at 4° C. The supernatant was discarded, and the final pellet was stored at −80° C. until used. […] For competitive inhibition experiments various concentrations of drugs studied were incubated. […] Samples were incubated at 37° C. for 20 min and then filtered on Whatman GF/B glass microfiber filters.
# Statistical Analysis. […] The value for the inhibition constant, Ki, was calculated by using the Cheng-Prusoff equation.
# [2] = target: T2, rat cloned 5-HT7 receptor (Rattus norvegicus, UniProt P32305); experiment: Radioligand binding assay ([3H]-LSD) at rat cloned 5-HT7Rs; details: for Ki: [3H]-LSD, rat recombinant 5-HT7R expressed in HEK-293 cells
# T2 construct: purchased PerkinElmer-NEN; host or cells: HEK-293
# T2 sequence (P32305 whole entry): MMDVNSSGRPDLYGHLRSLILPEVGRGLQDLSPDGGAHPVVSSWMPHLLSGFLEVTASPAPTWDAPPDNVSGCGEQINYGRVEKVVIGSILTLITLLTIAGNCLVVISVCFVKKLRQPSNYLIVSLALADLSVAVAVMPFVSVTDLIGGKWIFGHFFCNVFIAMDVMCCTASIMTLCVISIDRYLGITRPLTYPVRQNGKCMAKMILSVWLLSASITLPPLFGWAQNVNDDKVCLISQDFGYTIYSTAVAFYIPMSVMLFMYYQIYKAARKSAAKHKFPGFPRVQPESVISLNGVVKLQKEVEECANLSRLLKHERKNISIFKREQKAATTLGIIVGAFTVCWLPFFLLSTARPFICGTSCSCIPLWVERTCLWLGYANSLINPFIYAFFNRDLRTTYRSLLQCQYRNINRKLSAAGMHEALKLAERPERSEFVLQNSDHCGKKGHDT
# Method: Rat recombinant serotonin 5-HT7R expressed in HEK-293 cells were purchased from PerkinElmer-NEN (Betsville, Md., USA).
# Radioligand Binding Assay at Rat Cloned 5-HT7Rs. Binding of [^3H]-LSD at rat cloned 5-HT7 receptor was performed according to a known method. In 1 mL of incubation buffer (50 mM Tris, 10 mM MgCl2 and 0.5 mM EDTA, pH 7.4) were suspended 30 μg of membranes, 2.5 nM [^3H]-LSD, the drugs or reference compound (six to nine concentrations). The samples were incubated for 60 min at 37° C. The incubation was stopped by rapid filtration on GF/A glass fiber filters (pre-soaked in 0.5% polyethylenimine for 30 min). The filters were washed with 3 ? 3 mL of ice-cold buffer (50 mM Tris, pH 7.4). Nonspecific binding was determined in the presence of 10 μM 5-CT. Approximately 90% of specific binding was determined under these conditions.
# [3] = target: 5-HT2A receptors (Rattus norvegicus, UniProt P14842); experiment: Radioligand binding assay ([3H]-ketanserin) at rat cortex membranes 5-HT2A receptors; details: read-out: Ki, nM 5-HT2A; [3H]-ketanserin, rat cortex membranes
# Chain of 5-HT2A receptors (P14842 whole entry): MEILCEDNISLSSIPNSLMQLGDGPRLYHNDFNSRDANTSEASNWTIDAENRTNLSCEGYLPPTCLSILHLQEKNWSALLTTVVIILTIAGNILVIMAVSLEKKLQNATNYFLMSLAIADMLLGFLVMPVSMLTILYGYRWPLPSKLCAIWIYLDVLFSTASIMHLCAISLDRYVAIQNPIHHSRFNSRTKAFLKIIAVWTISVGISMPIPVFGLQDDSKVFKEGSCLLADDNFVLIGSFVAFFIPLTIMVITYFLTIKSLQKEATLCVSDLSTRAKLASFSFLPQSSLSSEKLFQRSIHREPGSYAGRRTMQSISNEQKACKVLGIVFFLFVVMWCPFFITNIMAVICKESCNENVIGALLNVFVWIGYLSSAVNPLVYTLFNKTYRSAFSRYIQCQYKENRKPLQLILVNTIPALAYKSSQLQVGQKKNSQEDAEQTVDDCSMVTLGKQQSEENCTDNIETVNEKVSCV
# Method: Radioligand Binding Assay at Rat Cortex Membranes 5-HT2A Receptors. […] Rats were killed by decapitation, the brain was quickly removed, and the cortex was dissected. […] The homogenate was centrifuged at 2000 g for 10 min at 4° C. The supernatant was saved, and the pellet was resuspended in 25 mL of buffer. The surnatantes were collected and diluted 1:10 w/w with 10 mM Tris pH 7.4. The homogenate was centrifugated at 35000 g for 15 min at 4° C. The supernatant was discarded, and the final pellet was stored at −80° C. until used. […] For competitive inhibition experiments various concentrations of drugs studied were incubated. […] Samples were incubated at 37° C. for 15 min and then filtered on Whatman GF/B glass microfiber filters.
# Statistical Analysis. […] PRISM® program. The value for the inhibition constant, Ki, was calculated by using the Cheng-Prusoff equation.
# [4] = target: 5-HT7 receptor (Cavia porcellus, UniProt P50407); experiment: Isolated guinea-pig ileum assay: relaxation of substance P-induced contraction; details: for PA2 (vs SB-269970): in the presence of antagonist SB-269970 (0.1 μM-3 μM); for 5-HT7 intrinsic activity (in words): isolated guinea-pig ileum; for Emax: read-out: Maximal Effect %; for Schild plot: vs SB-269970, p value in parentheses
# Chain of 5-HT7 receptor (P50407 whole entry): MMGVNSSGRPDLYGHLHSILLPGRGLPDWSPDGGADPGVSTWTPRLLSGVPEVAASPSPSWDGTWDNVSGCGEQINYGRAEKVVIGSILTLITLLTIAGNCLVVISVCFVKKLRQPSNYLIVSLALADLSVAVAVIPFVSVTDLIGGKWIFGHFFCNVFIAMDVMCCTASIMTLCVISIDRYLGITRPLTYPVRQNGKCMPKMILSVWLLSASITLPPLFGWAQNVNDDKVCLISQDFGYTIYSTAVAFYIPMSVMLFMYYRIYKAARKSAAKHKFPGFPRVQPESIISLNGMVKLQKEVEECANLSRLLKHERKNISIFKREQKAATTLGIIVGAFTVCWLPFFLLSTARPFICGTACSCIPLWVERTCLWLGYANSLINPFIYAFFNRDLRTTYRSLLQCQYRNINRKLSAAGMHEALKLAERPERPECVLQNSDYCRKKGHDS
# Method: Isolated Guinea-Pig Ileum Assay. Guinea-pigs were anesthetized and then decapitated and the proximal ileum removed. […] Changes in tension of the tissue were recorded by Fort 10 Original WPI isometric transducer (2Biological Instruments, Italy) connected to a PowerLab/400 workstation. […] Tested compounds were added 3 min before substance P addition.
# The isolated guinea pig ileum was equilibrated for 75 min with antagonist before constructing concentration-response curves of tested compounds.
# Tissue responses were recorded as gram changes in isometric tension and expressed as percentage of reduction in the height of the contraction.
# Agonist potencies, expressed as EC50, were obtained from non-linear iterative curve fitting by [sequence] PRISM®.
Ki [1] [nM],Ki [2] [nM],Structure (SMILES),Ki [3] [nM],other results
–,1400 ± 120,N#Cc1ccc(N2CCN(CCCCCC(=O)NC3CCCc4ccccc43)CC2)cc1 (centres unmarked) [Compound 40],–,5-HT7R affinity (in words) [2]: nearly devoid of 5-HT7R affinity
–,2640 ± 130,CC(=O)c1ccc(N2CCN(CCCCCC(=O)NC3CCCc4ccccc43)CC2)cc1 (centres unmarked) [Compound 42],–,5-HT7R affinity (in words) [2]: nearly devoid of 5-HT7R affinity
245 ± 20,92 ± 12,"COc1ccccc1N1CCN(CCCC(=O)NC2CCCc3ccccc32)CC1 (centres unmarked) [Compound 26, 4-(2-Methoxyphenyl)-N-(1,2,3,4-tetrahydronaphthalen-1-yl)-1-piperazinebutanamide]",–,–
39 ± 6.5,41 ± 11,COc1ccc2c(c1)C(NC(=O)CCCCCN1CCN(c3ccccc3OC)CC1)CCC2 (centres unmarked) [Compound 22],–,–
9 ± 0.7,6.05 ± 0.25,"COc1ccccc1N1CCN(CCCCC(=O)NC2CCCc3ccccc32)CC1 (centres unmarked) [Compound 27, 4-(2-Methoxyphenyl)-N-(1,2,3,4-tetrahydronaphthalen-1-yl)-1-piperazinepentanamide]",–,–
–,2100 ± 150,COc1ccc(N2CCN(CCCCCC(=O)NC3CCCc4ccccc43)CC2)cc1 (centres unmarked) [Compound 38],–,5-HT7R affinity (in words) [2]: nearly devoid of 5-HT7R affinity
279 ± 44,15.2 ± 3.2,"Cc1ccccc1N1CCN(CCCCCC(=O)NC2CCCc3ccccc32)CC1 (centres unmarked) [Compound 49, 4-(2-Methylphenyl)-N-(1,2,3,4-tetrahydronaphthalen-1-yl)-1-piperazinehexanamide]",262 ± 24,5-HT7R affinity (in words) [2]: high affinity; EC50 [4]: 1820 ± 720 nM; PA2 (vs SB-269970) [4]: 7.80 ± 0.40; 5-HT7 intrinsic activity (in words) [4]: Full agonists; Emax [4]: 98%; Schild plot [4]: 0.9 (p < 0.0001)
8.6 ± 0.35,6.64 ± 0.6,"COc1ccccc1N1CCN(CCCCCC(=O)NC2CCCc3ccccc32)CC1 (centres unmarked) [Compound 28, 4-(2-Methoxyphenyl)-N-(1,2,3,4-tetrahydronaphthalen-1-yl)-1-piperazinehexanamide]",–,5-HT7R affinity (in words) [2]: high affinity; EC50 [4]: 6320 ± 200 nM; PA2 (vs SB-269970) [4]: 8.02 ± 1.40; 5-HT7 intrinsic activity (in words) [4]: Full agonists; Emax [4]: 91%; Schild plot [4]: 1.0 (p < 0.0001)
3.8 ± 0.1,4.14 ± 0.8,"CC(=O)c1ccccc1N1CCN(CCCCCC(=O)NC2CCCc3ccccc32)CC1 (centres unmarked) [Compound 34, 4-(2-Acetylphenyl)-N-(1,2,3,4-tetrahydronaphthalen-1-yl)-1-piperazinehexanamide]",12200 ± 350,5-HT7R affinity (in words) [2]: reasonably good 5-HT7R affinity; also recorded: high affinity; EC50 [4]: 2460 ± 700 nM; PA2 (vs SB-269970) [4]: 7.60 ± 0.49; 5-HT7 intrinsic activity (in words) [4]: partial agonist; Emax [4]: 79%; Schild plot [4]: 1.3 (p < 0.0001)

# More lines, now with the values behind:
Structure (SMILES),Ki [1] [nM],Ki [2] [nM],Ki [3] [nM],other results
CC(=O)c1ccc(N2CCN(CCCCCC(=O)NC3CCCc4ccccc43)CC2)cc1 (centres unmarked) (as salt: HCl) [Compound 42],–,–,–,melting point: 112 to 114 °C
COc1ccc(OC)c(N2CCN(CCCCCC(=O)NC3CCCc4ccccc43)CC2)c1 (centres unmarked) [Compound 36],911 ± 23,70.3 ± 5.2,259 ± 20,–
COc1cc(Cl)ccc1N1CCN(CCCCCC(=O)NC2CCCc3ccccc32)CC1 (centres unmarked) [Compound 35],332 ± 27,122 ± 14,7170 ± 150,–
COc1cccc(N2CCN(CCCCCC(=O)NC3CCCc4ccccc43)CC2)c1 (centres unmarked) [Compound 37],105 ± 12,119 ± 20,142 ± 20,–
COc1ccc2c(c1)CCCC2NC(=O)CCCCCN1CCN(c2ccccc2OC)CC1 (centres unmarked) [Compound 19],55 ± 8,30 ± 3.15,–,–
N#Cc1cccc(N2CCN(CCCCCC(=O)NC3CCCc4ccccc43)CC2)c1 (centres unmarked) [Compound 39],291 ± 15,97.8 ± 5.6,909 ± 85,–
COc1ccccc1N1CCN(CCC(=O)NC2CCCc3c(OC)cccc32)CC1 (centres unmarked) [Compound 6],–,269 ± 18,–,5-HT1A receptor affinity (in words) [1]: moderate affinities; 5-HT7R affinity (in words) [2]: moderate affinities
CC(=O)c1cccc(N2CCN(CCCCCC(=O)NC3CCCc4ccccc43)CC2)c1 (centres unmarked) [Compound 41],676 ± 32,496 ± 24,1130 ± 200,–
N#Cc1ccccc1N1CCN(CCCCCC(=O)NC2CCCc3ccccc32)CC1 (centres unmarked) [Compound 33],16.6 ± 1.4,48.7 ± 2.5,700 ± 25,5-HT7R affinity (in words) [2]: reasonably good 5-HT7R affinity
COc1ccc2c(c1)C(NC(=O)CCCCCN1CCN(c3ccccc3OC)CC1)CCC2 (centres unmarked) (as salt: HCl) [Compound 22],–,–,–,melting point: 175 to 178 °C
COc1ccc2c(c1)CCCC2NC(=O)CCCCN1CCN(c2ccccc2OC)CC1 (centres unmarked) [Compound 18],23.2 ± 2.3,43.1 ± 4.8,–,–
COc1ccc(OC)c(N2CCN(CCCCCC(=O)NC3CCCc4ccccc43)CC2)c1 (centres unmarked) (as salt: HCl) (hydrate or solvate) [Compound 36],–,–,–,melting point: 124 to 126 °C
N#Cc1ccccc1N1CCN(CCCCCC(=O)NC2CCCc3ccccc32)CC1 (centres unmarked) (as salt: HCl) (hydrate or solvate) [Compound 33],–,–,–,melting point: 175 to 178 °C
"COc1ccccc1N1CCN(CCCC(=O)NC2CCCc3cccc(OC)c32)CC1 (centres unmarked) [Compound 23, N-(8-Methoxy-1,2,3,4-tetrahydronaphthalen-1-yl)4-(2-methoxyphenyl)-1-piperazinebutanamide]",441 ± 20,154 ± 35,–,–
COc1ccc2c(c1)CCCC2NC(=O)CCCN1CCN(c2ccccc2OC)CC1 (centres unmarked) [Compound 17],257 ± 25,186 ± 40,–,–
CS(=O)(=O)c1ccccc1N1CCN(CCCCCC(=O)NC2CCCc3ccccc32)CC1 (centres unmarked) (as salt: HCl) (hydrate or solvate) [Compound 45],–,–,–,melting point: 120 to 122 °C
O=C(CCCCCN1CCN(c2ccccc2[N+](=O)[O-])CC1)NC1CCCc2ccccc21 (centres unmarked) [Compound 48],183 ± 15,63.3 ± 7.5,282 ± 35,–
"CC(=O)c1ccccc1N1CCN(CCCCCC(=O)NC2CCCc3ccccc32)CC1 (centres unmarked) (as salt: HCl) (hydrate or solvate) [Compound 34, 4-(2-Acetylphenyl)-N-(1,2,3,4-tetrahydronaphthalen-1-yl)-1-piperazinehexanamide]",–,–,–,melting point: 136 to 139 °C
COc1ccccc1N1CCN(CCCCCC(=O)NC2CCCc3cccc(OC)c32)CC1 (centres unmarked) [Compound 25],30 ± 2.6,31.4 ± 3.5,–,–
"NCCc1c[nH]c2ccc(C(N)=O)cc12 [5-CT, reference compound]",–,0.51 ± 0.01,–,–
"COc1ccccc1N1CCN(CCCC(=O)NC2CCCc3c(OC)cccc32)CC1 (centres unmarked) [Compound 7, N-(5-methoxy-1,2,3,4-tetrahydronaphthalen-1-yl)-4-(2-methoxyphenyl)-1-piperazinebutanamide]",254 ± 65,35 ± 3.2,–,5-HT1A receptor affinity (in words) [1]: moderate affinities; 5-HT7R affinity (in words) [2]: moderate affinities
COc1ccccc1N1CCN(CCCCCC(=O)NC2CCCc3c(OC)cccc32)CC1 (centres unmarked) [Compound 16],24.5 ± 1.8,20 ± 2.5,–,–
O=C(CCCCCN1CCN(c2ccccc2Cl)CC1)NC1CCCc2ccccc21 (centres unmarked) [Compound 47],96 ± 8,40.1 ± 6.7,301 ± 12,–
COc1ccccc1N1CCN(CCCCC(=O)NC2CCCc3cccc(OC)c32)CC1 (centres unmarked) [Compound 24],72 ± 18,64 ± 12,–,–
"O=C(CCCCCN1CCN(c2ccccc2O)CC1)NC1CCCc2ccccc21 (centres unmarked) [Compound 46, 4-(2-Hydroxyphenyl)-N-(1,2,3,4-tetrahydronaphthalen-1-yl)-1-piperazinehexanamide]",24 ± 6.3,11.4 ± 2.3,3390 ± 225,5-HT7R affinity (in words) [2]: high affinity; 5-HT7 intrinsic activity (in words) [4]: antagonist; Emax [4]: 0%; Schild plot [4]: 1.6 (p < 0.005)
COc1ccc2c(c1)C(NC(=O)CCCCN1CCN(c3ccccc3OC)CC1)CCC2 (centres unmarked) [Compound 21],78.9 ± 6.3,38.4 ± 4.6,–,–
COc1ccc2c(c1)C(NC(=O)CCCN1CCN(c3ccccc3OC)CC1)CCC2 (centres unmarked) [Compound 20],160 ± 12,129 ± 5,–,–
COc1ccccc1N1CCN(CCCCC(=O)NC2CCCc3c(OC)cccc32)CC1 (centres unmarked) [Compound 15],54.4 ± 6.5,28.2 ± 4.2,–,–
O=C(CCCCCN1CCN(c2ccccc2)CC1)NC1CCCc2ccccc21 (centres unmarked) [Compound 50],128 ± 22,65.6 ± 4.7,77.8 ± 5.7,–
